Source: ChEMBL document CHEMBL1130610, “Synthesis and immunosuppressant activity of pyrazole carboxamides” (Bioorg Med Chem Lett, 1998)
Converted amounts (≈) assume the structure as drawn. One block for each compound: values may come before it. The source made the active and inactive calls. The calls are words filed in the database; no cut-off is given here.

Columns and labels:
[1] = organism: Homo sapiens; assay: Immunosuppressant activity using human mixed leukocyte response (HMLR).; assay type: functional
[2] = organism: Rattus norvegicus; assay: Immunosuppressant activity in rat using mixed leukocyte response (MLR).; assay type: functional
[3] = organism: Homo sapiens; assay: Compound was tested for immunosuppressant activity using human mixed leukocyte response(HMLR) at a concentration of 10 uM; Not active; assay type: functional
[4] = organism: Rattus norvegicus; assay: Compound was tested for immunosuppressant activity in rat using mixed leukocyte response(MLR) at a concentration of 10 uM; Not active; assay type: functional
[5] = organism: Homo sapiens; assay: Compound was tested for immunosuppressant activity using human mixed leukocyte response(HMLR) assay.; assay type: functional
[6] = organism: Homo sapiens; assay: Compound was tested for immunosuppressant activity using human mixed leukocyte response(HMLR) at 10 uM; Not active; assay type: functional
[7] = C max value was evaluated; assay type: ADME, organism-based; details: in vivo
[8] = Half-life value was evaluated; assay type: ADME
[9] = organism: Homo sapiens; assay: Compound was tested for immunosuppressant activity using human mixed leukocyte response (HMLR).; assay type: functional
[10] = organism: Rattus norvegicus; assay: Compound was tested for immunosuppressant activity in rat using mixed leukocyte response (MLR).; assay type: functional
[11] = Aqueous solubility at a pH of 7.3.; assay type: physicochemical; details: pH 7.3, read-out: S
[12] = organism: Rattus norvegicus; assay: Compound was tested for immunosuppressant activity in rat using mixed leukocyte response(MLR); Not active, < 20 % inhibition at 10 uM; assay type: functional
[13] = organism: Homo sapiens; assay: Compound was tested for immunosuppressant activity using human mixed leukocyte response(HMLR); Not active, < 20 % inhibition at 10 uM; assay type: functional

IC50 [1]: 410 nM | IC50 [2]: 7400 nM
SMILES: Cc1c(C(=O)Nc2ccc(C(F)(F)F)cc2)cnn1-c1ccc(Cl)cc1

IC50 [1]: 2300 nM | IC50 [2]: 650 nM
SMILES: Cc1c(C(=O)Nc2ccc(C(F)(F)F)cc2)cnn1-c1ccccc1

IC50 [1]: 5700 nM | IC50 [2]: 2300 nM
SMILES: Cc1c(C(=O)Nc2ccc(C(F)(F)F)cc2)cnn1-c1ccc([N+](=O)[O-])cc1

IC50 [1]: 3100 nM | IC50 [2]: 220 nM
SMILES: Cc1c(C(=O)Nc2ccc(C(F)(F)F)cc2)cnn1-c1cccc(F)c1

IC50 [1]: 2500 nM | IC50 [2]: 890 nM
SMILES: Cc1cccc(-n2ncc(C(=O)Nc3ccc(C(F)(F)F)cc3)c2C)c1

Cmax [7]: 460 ng/mL | half-life [8]: 822 min | IC50 [9]: 850 nM | IC50 [10]: 270 nM | solubility [11]: 0.4 µg/mL (≈ 1.1 µM)
SMILES: Cc1c(C(=O)Nc2ccc(C(F)(F)F)cc2)cnn1-c1ccc(F)cc1

IC50 [1]: 410 nM | IC50 [2]: 1000 nM
SMILES: Cc1ccc(-n2ncc(C(=O)Nc3ccc(C(F)(F)F)cc3)c2C)cc1

IC50 [1]: 1300 nM | IC50 [2]: 210 nM
SMILES: Cc1c(C(=O)Nc2ccc(C(F)(F)F)cc2)cnn1-c1ccc(F)c(Cl)c1

IC50 [1]: 1600 nM | IC50 [2]: 240 nM
SMILES: Cc1c(C(=O)Nc2ccc(C(F)(F)F)cc2)cnn1-c1cccc(Cl)c1Cl

IC50 [1]: 2200 nM | IC50 [2]: 410 nM
SMILES: Cc1cc(C)cc(-n2ncc(C(=O)Nc3ccc(C(F)(F)F)cc3)c2C)c1

IC50 [1]: 340 nM | IC50 [2]: 1000 nM
SMILES: COc1ccc(-n2ncc(C(=O)Nc3ccc(C(F)(F)F)cc3)c2C)cc1

IC50 [1]: 1500 nM | IC50 [2]: 150 nM
SMILES: Cc1ccccc1-n1ncc(C(=O)Nc2ccc(C(F)(F)F)cc2)c1C

IC50 [1]: 2500 nM | IC50 [2]: 2500 nM
SMILES: COc1cccc(-n2ncc(C(=O)Nc3ccc(C(F)(F)F)cc3)c2C)c1

IC50 [1]: 1100 nM | IC50 [2]: 110 nM
SMILES: Cc1c(C(=O)Nc2ccc(C(F)(F)F)cc2)cnn1-c1ccccc1F

Continued, compound first:

SMILES: Cc1c(C(=O)Nc2ccc(C(F)(F)F)cc2)cnn1CCc1ccc(F)cc1
IC50 [1]: 5400 nM | IC50 [2]: 1700 nM

SMILES: Cc1c(C(=O)NCCc2ccc(F)cc2)cnn1-c1ccc(F)cc1
inhibition at 10 µM [3]: < 20% | IC50 [2]: 300 nM

SMILES: Cc1c(C(=O)Nc2ccccc2F)cnn1-c1ccc(F)cc1
IC50 [1]: 4000 nM | IC50 [2]: 5100 nM

SMILES: Cc1ccccc1NC(=O)c1cnn(-c2ccc(F)cc2)c1C
IC50 [1]: 1100 nM | IC50 [2]: 110 nM

SMILES: Cc1n[nH]cc1C(=O)Nc1ccc(C(F)(F)F)cc1
inhibition at 10 µM [3]: < 20% | inhibition at 10 µM [4]: < 20%

SMILES: Cc1c(-c2ccc(-c3ccccc3F)cc2)nc2ccc(F)cc2c1C(=O)O [BREQUINAR]
IC50 [1]: 3900 nM | IC50 [2]: 1600 nM

SMILES: Cc1c(C(=O)Nc2ccc(F)cc2)cnn1-c1ccc(F)cc1
IC50 [5]: 2400 nM | IC50 [2]: 610 nM

SMILES: Cc1c(C(=O)NCc2ccc(F)cc2)cnn1-c1ccc(F)cc1
inhibition at 10 µM [6]: < 20% | IC50 [2]: 330 nM

SMILES: CCCCC(CC)NC(=O)c1cnn(-c2ccc(F)cc2)c1C (stereo not given)
IC50 [1]: 580 nM | IC50 [2]: 110 nM

SMILES: Cc1c(C(=O)Nc2cccc(F)c2)cnn1-c1ccc(F)cc1
IC50 [1]: 3000 nM | IC50 [2]: 800 nM

SMILES: Cc1cccc(NC(=O)c2cnn(-c3ccc(F)cc3)c2C)c1
IC50 [1]: 5700 nM | IC50 [2]: 890 nM

SMILES: COc1cccc(NC(=O)c2cnn(-c3ccc(F)cc3)c2C)c1
IC50 [1]: 3700 nM | IC50 [2]: 3600 nM

SMILES: Cc1c(C(=O)Nc2ccc(C(F)(F)F)cc2)cnn1Cc1ccccc1
IC50 [1]: 3700 nM | IC50 [2]: 2700 nM

SMILES: Cc1c(C(=O)Nc2ccc(OC(F)(F)F)cc2)cnn1-c1ccc(F)cc1
IC50 [1]: 3400 nM | IC50 [2]: 2600 nM

SMILES: Cc1oncc1C(=O)Nc1ccc(C(F)(F)F)cc1 [LEFLUNOMIDE]
IC50 [1]: 5400 nM | IC50 [2]: 1000 nM

SMILES: C/C(Nc1ccc(F)cc1)=C(/C#N)C(=O)Nc1ccc(C(F)(F)F)cc1
inhibition [12]: inactive | inhibition [13]: inactive

SMILES: Cc1c(C(=O)Nc2cccc(C(F)(F)F)c2)cnn1-c1ccc(F)cc1
IC50 [1]: 1700 nM | IC50 [2]: 1100 nM

SMILES: Cc1c(C(=O)Nc2ccc(C(F)(F)F)cc2)cnn1-c1ccccc1C(F)(F)F
IC50 [1]: 2600 nM | IC50 [2]: 260 nM

SMILES: C/C(Nc1ccccc1)=C(/C#N)C(=O)Nc1ccc(C(F)(F)F)cc1
inhibition [12]: inactive | inhibition [13]: inactive

SMILES: Cc1c(C(=O)N(CC(=O)O)c2ccc(C(F)(F)F)cc2)cnn1-c1ccc(F)cc1
Cmax [7]: 4450 ng/mL | half-life [8]: 360 min | IC50 [1]: 3200 nM | IC50 [2]: 310 nM | solubility [11]: 1530 µg/mL (≈ 3640 µM)

SMILES: Cc1c(C(=O)Nc2ccc(C(F)(F)F)cc2)cnn1Cc1ccc(F)cc1
IC50 [1]: 3600 nM | IC50 [2]: 2400 nM

SMILES: C/C(Nc1ccc([N+](=O)[O-])cc1)=C(/C#N)C(=O)Nc1ccc(C(F)(F)F)cc1
inhibition [12]: inactive | inhibition [13]: inactive

SMILES: Cc1ccc(NC(=O)c2cnn(-c3ccc(F)cc3)c2C)cc1
IC50 [1]: 540 nM | IC50 [2]: 200 nM
